Results published in patent US5618675A, “Methods and compositions for detecting lipopolysaccharides using CAP18 fragments” (Panorama Research, Inc., dated 1997).

Tested on: multiple drug-resistant Mycobacterium tuberculosis
Assay: Antimicrobial activity
Assay type: cell-based
Conditions: range 0-20 μg/ml

36-1: synthetic rabbit RNIP-derived fragment, amino acids 135-166 of SEQ ID NO:4 (GLRKRLRKFRNKIKEKLKKIGQKIQGLLPKLA)
activity versus multiple drug-resistant Mycobacterium tuberculosis: inactive

RNIP: reactive nitrogen inhibitory protein, amino acids 135-171 of SEQ ID NO:4 (rabbit CAP18 C-terminus); purified from granulocytes or synthetic (#197) (GLRKRLRKFRNKIKEKLKKIGQKIQGLLPKLAPRTDY)
activity versus multiple drug-resistant Mycobacterium tuberculosis: inactive
